From patent US11766447B2, “3′3′-cyclic dinucleotide analogue comprising a cyclopentanyl modified nucleotide as sting modulator” (INSTITUTE OF ORGANIC CHEMISTRY AND BIOCHEMISTRY ASCR, V.V.I., priority 2019, dated 2023) come the findings set out here.

For one test, the target named is T1, AQ STING (G230A-R293Q) (Homo sapiens, UniProt Q86WV6, G230A/H232R/R293Q).
T1 construct: 8xHis (N, cleaved yes); SUMO (N, cleaved yes); made in house; host or cells: E. coli Rosetta-gami B (DE3)
Nature of the test: Differential scanning fluorimetry (DSF) with AQ STING. To be noted: thermal shift vs apoprotein; 150 μM CDN; truncated human AQ STING 0.1 mg/ml. Type of test: binding. Here is the method:
(§1) Purified PCR products were cleaved with restriction enzymes BamHI (cat. #R0136S, NEB, Ipswich, USA) and NotI (cat. #R0189S, NEB, Ipswich, USA) and cloned into the pSUMO vector linearized with the identical enzymes.
(§2) DNase I (cat. #D5025, Sigma Aldrich, Czech Republic) and RNase A (cat. #R6513, Sigma Aldrich, Czech Republic) were added (final concentration 50 μg/ml) together with MgCl2 (final concentration 5 mmol·l^−1) to the homogenate and bacteria were lysed using French Press G-M™ High-Pressure Cell Press Homogenizer (1500 psi, 3 cycles). […] The resin was poured into a chromatography column, washed with 50 ml buffer A (50 mmol·l^−1 TrisCl (pH 8.0), 800 mmol·l^−1 NaCl, 3 mmol·l^−1 β-mercaptoethanol; 10% glycerol; 20 mmol·l^−1 imidazol) and 8-His-SUMO tagged STING proteins were eluted with 15 ml buffer A containing 300 mmol·l^−1 imidazole. […] Proteins were concentrated with Amicon® Ultra-15 10 K device (cat. #UFC901008, Merck Millipore, Billerica, USA) and flash frozen in liquid N2.
(§3) 20 μL solutions of the reaction mixtures were pipetted in triplicates into 96 well optical reaction plates and thermal denaturation of samples were performed on real time PCR cycler (LightCycler® 480 Instrument II—Roche, Basel, Switzerland). The first derivative of the thermal denaturation curves was performed to calculate denaturing temperatures of STING-CDN complexes and STING apoproteins. The thermal shift for each CDN was calculated by subtracting the average denaturing temperature of STING apoprotein from the average denaturing temperature of STING CDN complex.

The target of test [1] is T2, WT STING (Homo sapiens, UniProt Q86WV6, H232R). Put plainly: Digitonin assay using 293T wtSTING-FL reporter cells. The settings on record: 293T wtSTING-FL cells, ISRE firefly luciferase; compounds in Digitonin buffer 30 minutes, then 5 hours; 8-point curve. Type of test: cell-based. Set-up: host or cells: 293T (ATCC CRL-3216), stably transfected, with 4xISRE firefly luciferase reporter. From the text: Two complementary oligonucleotides of the sequence […] […] […] […] […] The oligonucleotides were mixed in equal molar amounts, hybridized, and cleaved by restriction endonucleases HindIII (cat. #. R0104S, NEB, Ipswich, USA) and BglII (cat. #R0144S, NEB, Ipswich, USA). Ultimately, they were ligated into plasmid pGL4.27 (cat. #E6651, Promega, Madison, USA) linearized with the same enzymes. As result the sequence with four ISRE sites was placed upstream of the minimum promoter of firefly luciferase reporter gene.
After 5 minutes incubation at room temperature (RT), 250 μL of the mixture was added dropwise to the cells in one well. Cells were incubated 36 hours at 37° C. with 5% CO2, and then detached with 0.05% Trypsin and 0.22 g/L EDTA (both cat. #L0941, Biowest, Riverside, USA).
Transfected cells were seeded onto poly-D-lysine coated six well plates at density 50,000 cells per 1 cm^2 in DMEM medium with high glucose containing 10% heat inactivated FBS, 30 μg/mL blasticidin (cat. #ant-b1-05, InvivoGen, San Diego, USA), 0.06 mg/ml Penicillin G and 0.1 mg/ml Streptomycin Sulfate (both cat. #. L0018, Biowest, Riverside, USA). The medium was replenished every 3-4 days until visible colonies of cells resistant to blasticidin were formed.
Blasticidin resistant cells stably expressing WT STING were further transfected with […] plasmid following the same procedure as described above. […] Homogeneous culture of stably double transfected cells was prepared by limiting dilution of cells in 96 well plates and wells with cells were selected that originated from a single cell.
The medium was removed next day and three fold serial dilutions of compounds in Digitonin buffer containing 50 mmol·l^−1 HEPES (cat. #H3375, Sigma Aldrich, Czech Republic) pH 7.0, 100 mmol·l^−1 KCl, 3 mmol·l^−1 MgCl2, 0.1 mmol·l^−1 DTT (cat. #D0632, Sigma Aldrich, Czech Republic), 85 mmol·l^−1 Sucrose (cat. #S7903, Sigma Aldrich, Czech Republic), 0.2% BSA (cat. #A2153, Sigma Aldrich, Czech Republic), 1 mmol·l^−1 ATP (cat. #A1852, Sigma Aldrich, Czech Republic), 0.1 mmol·l^−1 GTP (cat. #G8877, Sigma Aldrich, Czech Republic), and 10 μg/mL Digitonin A (cat. #D141, Sigma Aldrich, Czech Republic) were added to the cells. The buffer was removed after 30 minutes incubation at 37° C. with 5% CO2, the cells were washed once with 100 μl of cultivation medium, and 100 μl of medium was added to each well. The plates with cells were incubated for 5 hours at 37° C. with 5% CO2, 50 μl of the medium was removed and 30 μl of ONE-Glo™ Luciferase Assay System reagent (cat. #E6120, Promega, Madison, USA) was added to each well. Luminescence was read on Synergy H1 (Biotek, Winooski, USA). GraphPad Prism (La Jolla, USA) was used to calculate the 50% effective concentration ([…] from an 8-point dose-response curve.
Target sequence in this assay (Q86WV6 whole entry H232R): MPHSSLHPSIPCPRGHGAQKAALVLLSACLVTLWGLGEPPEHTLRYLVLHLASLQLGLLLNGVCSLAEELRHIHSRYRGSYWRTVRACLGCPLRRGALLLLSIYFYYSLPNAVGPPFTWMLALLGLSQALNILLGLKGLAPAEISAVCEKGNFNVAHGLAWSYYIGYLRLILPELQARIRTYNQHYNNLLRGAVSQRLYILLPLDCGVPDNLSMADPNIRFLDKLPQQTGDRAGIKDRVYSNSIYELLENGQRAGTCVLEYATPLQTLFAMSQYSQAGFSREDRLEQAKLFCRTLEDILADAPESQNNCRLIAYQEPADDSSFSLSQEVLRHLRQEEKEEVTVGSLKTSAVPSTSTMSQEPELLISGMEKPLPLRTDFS

Test [2] has as its target T2, WT STING. Put plainly: Differential scanning fluorimetry (DSF) with WT STING. Type of test: binding. The settings on record: thermal shift vs apoprotein; 150 μM CDN; truncated human WT STING 0.1 mg/ml. Details: 8xHis (N, cleaved yes); SUMO (N, cleaved yes); made in house; host or cells: E. coli Rosetta-gami B (DE3). Here is the method:
as §1, §2, §3
Target sequence in this assay (Q86WV6 140-343 H232R): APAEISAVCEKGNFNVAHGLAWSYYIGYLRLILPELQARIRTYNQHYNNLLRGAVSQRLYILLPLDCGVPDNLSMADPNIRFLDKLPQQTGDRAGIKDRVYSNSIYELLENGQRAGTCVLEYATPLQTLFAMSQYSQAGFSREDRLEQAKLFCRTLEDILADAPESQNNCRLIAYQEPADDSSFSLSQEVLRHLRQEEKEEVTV
For orientation: Differential scanning fluorimetry follows unfolding on heating by fluorescence.

T1 sequence (Q86WV6 140-343 G230A/H232R/R293Q): as the sequence (Q86WV6 140-343 H232R) above, with G91A, R154Q counted along it

The term ΔTm denotes the shift of the melting midpoint relative to a reference. The term EC50 denotes the concentration needed to bring the measured effect to its halfway point. `Nc1ncnc2c1ncn2[C@@H]1C[C@@H]2COP(=O)(S)O[C@@H]3[C@@H](COP(=O)(S)O[C@H]2[C@H]1F)C[C@@H](n1cnc2c(N)ncnc21)[C@@H]3F` (single isomer, unassigned) [Compound 128a]: the ΔTm at 150 µM on AQ STING (G230A-R293Q) worked out at 14.8 °C; on WT STING [2], 9.6 °C. Besides, at WT STING [1], the EC50 is 10 nM.

`Nc1nc2c(ncn2[C@@H]2C[C@@H]3COP(=O)(O)OC4C[C@H](n5cnc6c(N)ncnc65)O[C@@H]4COP(=O)(O)OC3C2O)c(=O)[nH]1` (stereo partly drawn) [Compound 106, 2-amino-9-((2R,3aS,7aR,9R,10S,10aR,14aR)-2-(6-amino-9H-purin-9-yl)-5,10,12-trihydroxy-5,12-dioxidodecahydro-2H-cyclopenta[d]furo[3,2-j][1,3,7,9]tetraoxa[2,8]diphosphacyclododecin-9-yl)-1,9-dihydro-6H-purin-6-one]: the ΔTm at 150 µM on AQ STING (G230A-R293Q) was found to be 9 °C; on WT STING [2], 1.9 °C. The EC50 on WT STING [1] was determined as 400 nM.

Regarding `Nc1nc2c(ncn2[C@H]2CC3OP(=O)(O)OC[C@H]4O[C@@H](n5cnc6c(N)ncnc65)C(O)C4OP(=O)(O)OC[C@H]3C2)c(=O)[nH]1` (stereo partly drawn) [Compound 115, (6R,8R,15R,17R)-17-(2-amino-6-oxo-6,9-dihydro-1H-purin-9-yl)-8-(6-amino-9H-purin-9-yl)-3,9,12-trihydroxy-2,4,7,11,13-pentaoxa-3λ^5,12λ^5-diphosphatricyclo[13.3.0.0^6,10]octadecane-3,12-dione], the ΔTm at 150 µM at AQ STING (G230A-R293Q) came out at 10.5 °C; at WT STING [2], 3.8 °C. In addition, the EC50 at WT STING [1] was found to be 70 nM.

On to `Nc1nc2c(ncn2[C@@H]2O[C@@H]3COP(=O)(O)O[C@H]4[C@@H](O)[C@H](n5cnc6c(=O)[nH]c(N)nc65)O[C@@H]4COP(=O)(O)O[C@H]3[C@H]2O)c(=O)[nH]1` [3′3′c-di-GMP, reference compound], for which the “DSF ΔTm (° C.) AQ STING” value on AQ STING (G230A-R293Q) is 7.7 °C. The EC50 at WT STING [1] was found to be 5800 nM. The “DSF ΔTm (° C.) WT STING” value at WT STING [2] was found to be 2.6 °C.

As to `Nc1ncnc2c1ncn2[C@@H]1C[C@@H]2COP(=O)(O)OC3C(F)[C@H](n4cnc5c(N)ncnc54)O[C@@H]3COP(=O)(S)OC2C1F` (single isomer, unassigned) [Compound 141b], the “DSF ΔTm (° C.) AQ STING” value on AQ STING (G230A-R293Q) is 11.6 °C. In addition, the concentration for a half-maximal effect (EC50) at WT STING [1] is 50 nM. For the same compound, at WT STING [2], the “DSF ΔTm (° C.) WT STING” value worked out at 5.3 °C.

For the compound `Nc1nc2c(ncn2[C@@H]2C[C@@H]3COP(=O)(S)O[C@H]4[C@@H](F)[C@H](n5cnc6c(N)ncnc65)O[C@@H]4COP(=O)(S)O[C@H]3C2)c(=O)[nH]1` (single isomer, unassigned) [Compound 129c], the ΔTm at 150 µM at AQ STING (G230A-R293Q) stood at 13.2 °C. The EC50 on WT STING [1] was determined as 400 nM. Besides, the “DSF ΔTm (° C.) WT STING” value on WT STING [2] came out at 6.4 °C.

On to `COC1C2OP(=O)(O)OC[C@H]3C[C@@H](n4cnc5c(N)ncnc54)C(O)C3OP(=O)(O)OC[C@H]2O[C@H]1n1cnc2c(=O)[nH]c(N)nc21` (stereo partly drawn) [Compound 114, 2-amino-9-((2R,3R,3aR,7aR,9R,10S,10aR,14aR)-9-(6-amino-9H-purin-9-yl)-5,10,12-trihydroxy-3-methoxy-5,12-dioxidodecahydro-2H-cyclopenta[d]furo[3,2-j][1,3,7,9]tetraoxa[2,8]diphosphacyclododecin-2-yl)-1,9-dihydro-6H-purin-6-one], for which the thermal shift (ΔTm) at 150 µM on AQ STING (G230A-R293Q) amounted to 4.6 °C; at WT STING [2], 0.4 °C. Moreover, on WT STING [1], the EC50 worked out at 21800 nM.

For `Nc1nc2c(ncn2[C@@H]2O[C@@H]3COP(=O)(O)OC4C(O)[C@H](n5cnc6c(N)ncnc65)C[C@@H]4COP(=O)(O)OC3C2F)c(=O)[nH]1` (single isomer, unassigned) [Compound 111], the “DSF ΔTm (° C.) AQ STING” value on AQ STING (G230A-R293Q) was determined as 13.7 °C. For the same compound, the EC50 at WT STING [1] is 70 nM. In addition, the “DSF ΔTm (° C.) WT STING” value on WT STING [2] worked out at 4.1 °C.

Consider `Nc1nc2c(ncn2[C@@H]2C[C@@H]3COP(=O)(O)OC4C(O)[C@H](n5cnc6c(N)ncnc65)O[C@@H]4COP(=O)(O)OC3C2O)c(=O)[nH]1` (stereo partly drawn) [Compound 113, 2-amino-9-((2R,3S,3a5,7aR,9R,10S,10aR,14aR)-2-(6-amino-9H-purin-9-yl)-3,5,10,12-tetrahydroxy-5,12-dioxidodecahydro-2H-cyclopenta[d]furo[3,2-j][1,3,7,9]tetraoxa[2,8]diphosphacyclododecin-9-yl)-1,9-dihydro-6H-purin-6-one], for which the ΔTm at 150 µM on AQ STING (G230A-R293Q) came to 7.9 °C; on WT STING [2] it was 2.1 °C. For the same compound, the EC50 at WT STING [1] was determined as 3600 nM.

With `Nc1ncnc2c1ncn2[C@H]1CC2OP(=O)(O)OC[C@H]3C[C@@H](n4cnc5c(N)ncnc54)CC3OP(=O)(O)OC[C@H]2C1` (stereo partly drawn) [Compound 125, (2R,3aS,7aR,9R,10aS,14aR)-2,9-bis(6-amino-9H-purin-9-yl)-5,12-dihydroxydodecahydrodicyclopenta[d,j][1,3,7,9]-tetraoxa[2,8]diphosphacyclododecine 5,12-dioxide], the ΔTm at 150 µM amounted to 5.1 °C on AQ STING (G230A-R293Q) and 0.7 °C at WT STING [2]. Moreover, at WT STING [1], the EC50 was determined as 13200 nM.

Regarding `Nc1nc2c(ncn2[C@H]2CC3OP(=O)(O)OC[C@H]4O[C@@H](n5cnc6c(N)ncnc65)CC4OP(=O)(O)OC[C@H]3C2)c(=O)[nH]1` (stereo partly drawn) [Compound 117, (6R,8R,15R,17R)-17-(2-amino-6-oxo-6,9-dihydro-1H-purin-9-yl)-8-(6-amino-9H-purin-9-yl)-3,12-dihydroxy-2,4,7,11,13-pentaoxa-3λ^5,12λ^5-diphosphatricyclo[13.3.0.0^6,10]octadecane-3,12-dione], the results for the ΔTm at 150 µM at AQ STING (G230A-R293Q) and at WT STING [2] were 7.1 °C and 2.2 °C, respectively. Moreover, at WT STING [1], the EC50 was 200 nM.

As to `Nc1nc2c(ncn2[C@@H]2O[C@@H]3COP(=O)(S)O[C@@H]4[C@@H](COP(=O)(S)O[C@H]3[C@H]2F)C[C@@H](n2cnc3c(N)ncnc32)[C@@H]4F)c(=O)[nH]1` (single isomer, unassigned) [Compound 132a], the ΔTm at 150 µM on AQ STING (G230A-R293Q) worked out at 19.9 °C; at WT STING [2], 12.9 °C. On WT STING [1], the 50% effective concentration (EC50) was 8 nM.

As to `Nc1nc2c(ncn2[C@H]2CC3OP(=O)(S)OC[C@H]4O[C@@H](n5cnc6c(N)ncnc65)C(F)C4OP(=O)(S)OC[C@H]3C2)c(=O)[nH]1` (single isomer, unassigned) [Compound 129a], the ΔTm at 150 µM at AQ STING (G230A-R293Q) turned out to be 14 °C; on WT STING [2] it was 6.4 °C. Also, the EC50 at WT STING [1] came out at 100 nM.
